What all share (experiment): growth of human tumour cells (NCI), 48 h
Test [1] relates to SNB-19.
In test [2] the test system is A498.
Test [3] concerns MDA-MB-435.
Test [4] relates to UO-31.
Test [5] concerns OVCAR-5.
Test [6] concerns EKVX.
Test [7] concerns MDA-MB-231.
The test system of test [8] is LOX IMVI.
The subject of test [9] is NCI/ADR-RES.
Test [10] relates to HL-60.
Test [11] deals with MOLT-4.
The test system of test [12] is Malme-3M.
Test [13] concerns SK-MEL-28.
The subject of test [14] is T47D.
The subject of test [15] is NCI-H226.
The test system of test [16] is TK-10.
The test system of test [17] is MCF7.
The subject of test [18] is OVCAR-3.
Test [19] concerns HT-29.
Test [20] concerns CAKI-1.

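Where inhibition never reached the appropriate level, the endpoint shown equals the highest concentration tested. Otherwise, values were interpolated linearly from a five-concentration, 48-hour dose response in 96-well plates. GI50: concentration for 50% inhibition of growth.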 Active and inactive are the calls of the source. Rule as the data show it: active = GI50 up to about 1.1 µM and inactive = higher. A value given as a limit tells only on which side of the number the result lay.

As to `Nc1nn2c(C(Br)Br)cc(C(Br)Br)nc2c1[N+](=O)[O-]`, the GI50 in test [1] is 1.61 µM (inactive); in test [2] it was 2.18 µM (inactive); in test [3] it was 0.587 µM (active); in test [4], 1.25 µM (inactive); in test [5], 1.72 µM (inactive); in test [6] it was 2.37 µM (inactive). Moreover, the GI50 is 1.6 µM (inactive) in [7]; 0.269 µM (active) in test [8]; 2.78 µM (inactive) in test [9]; 0.178 µM (active) in test [10]; 0.303 µM (active) in [11]; 0.738 µM (active) in [12]. Also, the GI50 in [13] was 1.53 µM (inactive); in test [14] it was 0.667 µM (active); in [15], 2.21 µM (inactive); in test [16] it was 0.971 µM (active); in [17], 0.826 µM (active); in test [18], 0.437 µM (active). In addition, the GI50 in test [19] is 0.766 µM (active); in test [20], 0.5 µM (active).
`Nc1nc(Cl)cc(NCCC2(CO)CCC2)n1`: the GI50 in test [1] was > 100 µM (inactive); in test [2], > 100 µM (inactive); in test [3] it was > 100 µM (inactive); in test [4], > 100 µM (inactive); in [5] it was > 100 µM (inactive); in [6], 4.73 µM (inactive). The GI50 in test [7], in [8], in test [9], in test [10], in test [11] and in test [12] was > 100 µM (inactive) throughout. For the same compound, the GI50 in test [13], in test [14], in [15], in test [16], in test [17] and in test [18] was > 100 µM (inactive) throughout. Besides, the GI50 in [19] and in [20] was > 100 µM (inactive) throughout.
Consider `N#Cc1cc2c(n(C3OC(CO)C(O)C(O)C3O)c1=S)CCC2` (stereo unspecified), for which the GI50 in test [1], in test [2], in [3], in test [4], in test [5] and in test [7] was > 100 µM (inactive) each time. Besides, the GI50 in test [8], in test [9], in test [10], in test [11], in test [12] and in test [13] was > 100 µM (inactive) throughout. In addition, the GI50 in test [14], in test [15], in test [16], in [17], in test [18] and in test [19] was > 100 µM (inactive) throughout. Also, the GI50 in test [20] was > 100 µM (inactive).
In the case of `Cc1nc2c(ccc3[nH]c4ccccc4c32)s1`, the GI50 in test [1] is 37.8 µM (inactive); in test [2], 17.8 µM (inactive); in test [3], 26.4 µM (inactive); in [4], 26.2 µM (inactive); in test [5], 19.3 µM (inactive); in [6], 21.2 µM (inactive). For the same compound, the GI50 was 14.5 µM (inactive) in test [7]; 34.8 µM (inactive) in test [9]; 0.111 µM (active) in test [10]; 12.6 µM (inactive) in [11]; 31.4 µM (inactive) in [12]; 21.1 µM (inactive) in test [13]. For the same compound, the GI50 is 20.2 µM (inactive) in [14]; 14.8 µM (inactive) in test [15]; 29.5 µM (inactive) in test [16]; 26.7 µM (inactive) in test [17]; 20.6 µM (inactive) in test [18]; 16.9 µM (inactive) in test [19]. Further, in test [20], the GI50 was 47.5 µM (inactive).
Take `CSc1nc(NC2CCCC2)c2cc[nH]c2n1`: the GI50 in test [1] was 66.7 µM (inactive); in test [2], 22.6 µM (inactive); in test [3], 59.2 µM (inactive); in test [4] it was 48.1 µM (inactive); in test [6] it was 31.2 µM (inactive); in [7], 36.1 µM (inactive). Besides, the GI50 in test [8] was 37.6 µM (inactive); in test [9] it was 71.1 µM (inactive); in [10], 20 µM (inactive); in [11] it was 42.4 µM (inactive); in test [12], > 100 µM (inactive); in [13] it was 92 µM (inactive). The GI50 was 61.1 µM (inactive) in test [14]; 87.5 µM (inactive) in [15]; 72.6 µM (inactive) in test [16]; 57.3 µM (inactive) in test [17]; 54.1 µM (inactive) in test [18]; 37.1 µM (inactive) in test [19]. The GI50 in [20] was > 100 µM (inactive).
Consider `NS(=O)(=O)c1nnc(NS(=O)(=O)c2ccccc2[N+](=O)[O-])s1`, for which the GI50 in test [1], in test [2], in test [3], in [4], in test [5] and in test [6] was > 100 µM (inactive) throughout. In addition, the GI50 in [7], in test [9], in test [10], in test [11], in [12] and in [13] was > 100 µM (inactive) throughout. For the same compound, the GI50 in test [14], in [15], in test [16], in test [17], in [18] and in test [19] was > 100 µM (inactive) throughout. Besides, the GI50 in test [20] was > 100 µM (inactive).
In the case of `CC(C)(Cl)C(Br)CCC(C)(Cl)C(Br)CBr` (stereo unspecified), the GI50 was 39.4 µM (inactive) in [1]; 22.5 µM (inactive) in test [2]; 26.7 µM (inactive) in test [3]; 31.9 µM (inactive) in test [4]; 18.7 µM (inactive) in [5]; 32.1 µM (inactive) in [6]. Also, the GI50 in test [7] is 23.3 µM (inactive); in test [9], 31.7 µM (inactive); in [10], 19.4 µM (inactive); in [11], 41.2 µM (inactive); in test [12], 22.4 µM (inactive); in [13], 29.1 µM (inactive). Further, the GI50 was 30.5 µM (inactive) in [14]; 25.4 µM (inactive) in test [15]; 35.4 µM (inactive) in test [16]; 17.6 µM (inactive) in test [17]; 25.1 µM (inactive) in [18]; 19.5 µM (inactive) in test [19].
Take `CC1C(c2ccccc2)O[B-](F)(c2ccccc2)[NH+]1C` (stereo unspecified): the GI50 in test [1], in test [2], in test [3], in test [4], in test [5] and in [6] was > 100 µM (inactive) each time. For the same compound, the GI50 in test [7], in [8], in test [9], in test [10], in test [11] and in [12] was > 100 µM (inactive) throughout. Further, the GI50 in test [13], in test [14], in test [15], in test [16], in test [17] and in test [18] was > 100 µM (inactive) throughout. Moreover, the GI50 in test [19] is > 100 µM (inactive).
In the case of `COc1ccc2cc1Oc1ccc(cc1)CC1c3cc(OC)c(cc3CCN1C)Oc1c(OC)c(OC)cc3c1C(C2)N(C)CC3` (stereo unspecified), the GI50 is 12.7 µM (inactive) in test [1]; 10.6 µM (inactive) in test [2]; 12 µM (inactive) in test [3]; 9.42 µM (inactive) in test [4]; 34.2 µM (inactive) in test [5]; 12.2 µM (inactive) in test [6]. Also, the GI50 was 10 µM (inactive) in test [7]; 9.98 µM (inactive) in test [8]; 14 µM (inactive) in test [9]; 4.71 µM (inactive) in test [10]; 10.4 µM (inactive) in test [11]; 11.4 µM (inactive) in test [12]. Also, the GI50 is 14.5 µM (inactive) in test [13]; 9.93 µM (inactive) in test [14]; 16.9 µM (inactive) in test [15]; 10.8 µM (inactive) in test [16]; 14.6 µM (inactive) in test [17]; 8.79 µM (inactive) in [19]. Further, the GI50 in test [20] was 11.2 µM (inactive).
With `NC(=O)NC(=O)Nc1ccc(Br)cc1`, the GI50 is > 11.9 µM (inactive) in test [1]; 9.79 µM (inactive) in [2]; 9.57 µM (inactive) in test [3]; 22.8 µM (inactive) in test [4]; > 21.1 µM (inactive) in test [5]; 14.7 µM (inactive) in test [6]. The GI50 in test [7] is > 16.6 µM (inactive); in [8], 8.45 µM (inactive); in test [9] it was > 30.8 µM (inactive); in [10], 4.34 µM (inactive); in test [11] it was 3.78 µM (inactive); in [12], > 15.8 µM (inactive). Moreover, the GI50 in test [13] was 6.14 µM (inactive); in [14], 6.03 µM (inactive); in [15] it was 21.5 µM (inactive); in [16], > 35.9 µM (inactive); in test [17], 5.45 µM (inactive); in test [19], 3.46 µM (inactive). For the same compound, in test [20], the GI50 is > 9.38 µM (inactive).

Values taken from ChEMBL document CHEMBL1201862, “PubChem BioAssay data set” (2004).
